Patent publication US20240254114A1, “PREPARATION OF FUSED AZOLE DERIVATIVES AS NOVEL DIACYLGLYCERIDE 0-ACYLTRANSFERASE 2 INHIBITORS” (Merck Sharp & Dohme LLC, priority 2022, published 2024)

target: human DGAT2 (Homo sapiens (Human), UniProt Q96PD7); assay: DGAT2 Enzymatic Activity Assay; conditions: Human DGAT2 IC50, hDGAT2 membrane prep from Sf-9 cells; 13C18-triolein product by LC/MS/MS
Sequence (Q96PD7 whole entry): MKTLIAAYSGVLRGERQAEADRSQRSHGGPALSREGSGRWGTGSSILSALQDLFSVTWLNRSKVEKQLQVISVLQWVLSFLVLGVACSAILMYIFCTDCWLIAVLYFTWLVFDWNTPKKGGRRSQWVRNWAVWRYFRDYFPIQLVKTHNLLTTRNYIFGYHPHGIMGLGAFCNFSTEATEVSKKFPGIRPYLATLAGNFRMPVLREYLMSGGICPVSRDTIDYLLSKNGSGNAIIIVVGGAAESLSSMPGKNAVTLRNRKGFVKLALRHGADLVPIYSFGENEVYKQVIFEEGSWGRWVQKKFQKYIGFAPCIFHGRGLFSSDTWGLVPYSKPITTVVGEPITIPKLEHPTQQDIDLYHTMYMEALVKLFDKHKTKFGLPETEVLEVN
Experimental: Sf-9 insect cells were maintained in Grace's insect cell culture medium with 10% heated-inactivated fetal bovine serum, 1% Pluronic F-68 and 0.14 μg/ml Kanamycine sulfate at 27° C. in a shaker incubator. After infection with untagged baculovirus expressing human DGAT2 (hDGAT2) at multiplicity of infection (MOI) 3 for 48 hours, cells were harvested. Cell pellets were suspended in buffer containing 10 mM Tris-HCl pH 7.5, 1 mM EDTA, 250 mM sucrose and Complete Protease Inhibitor Cocktail (Sigma Aldrich), and sonicated on ice. Cell debris were removed by centrifugation at 2000×g for 15 minutes. Membrane fractions were isolated by ultracentrifugation (100,000×g), resuspended in the same buffer, and frozen (−80° C.) for later use. The protein concentration was determined with the Pierce™ BCA Protein Assay Kit (Thermo Fisher Scientific).
LC/MS/MS analyses were performed using Thermal Fisher's LX4-TSQ Vantage system. This system consists of an Agilent binary high-performance liquid chromatography (HPLC) pump and a TSQ Vantage triple quadrupole MS/MS instrument. For each sample, 2 μL samples from the top organic layer of in-plate liquid-liquid extraction were injected onto a Thermo Betabasic C4 column (2.1 mm×20 mm, 5 μm particle size). The samples were then eluted using the following conditions; mobile phase: Isopropanol: acetonitrile/10 mM ammonium formate=50/35/15 (v/v/v), flow rate: 0.8 mL/min, temperature: 25° C. Data was acquired in positive mode using a heated electrospray ionization (HESI) interface. […] The peak area was integrated by Xcalibur Quan software. The ratio between the ^13C18 triolein generated in the reaction and spiked in internal standard ^13C21-triolein was used to generate percentage inhibition and IC50 values. […] DGAT2 activity was determined by measuring the amount of enzymatic product ^13C18-triolein (^13C-1,2,3-Tri(cis-9-octadecenoyl)glycerol) using the membrane prep mentioned above. The assay was carried out in ABgene 384-well assay plates in a final volume of 25 μL at rt.

| IC50 | SMILES |
| --- | --- |
| 1.3 nM | CC1(NC(=O)c2nc3ccc(Oc4ncccc4OCC(F)(F)F)cc3s2)CCS(=O)(=O)CC1 [Example 91, N-(4-Methyl-1,1-dioxidotetrahydro-2H-thiopyran-4-yl)-6-((3-(2,2,2-trifluoroethoxy)pyridin-2-yl)oxy)benzo[d]thiazole-2-carboxamide] |
| 1.1 nM | Cn1c(C(=O)NC2(C)CCS(=O)(=O)CC2)cc2ccc(Oc3ncc(Cl)cc3OCC(F)F)nc21 [Example 99, 6-((5-Chloro-3-(2,2-difluoroethoxy)pyridin-2-yl)oxy)-1-methyl-N-(4-methyl-1,1-dioxidotetrahydro-2H-thiopyran-4-yl)-1H-pyrrolo[2,3-b]pyridine-2-carboxamide] |
| 16 nM | Cn1c(C(=O)NC2(C)CCS(=O)(=O)CC2)nc2cnc(Oc3ncc(Cl)cc3OCC(F)F)cc21 [Example 66, 6-((5-Chloro-3-(2,2-difluoroethoxy)pyridin-2-yl)oxy)-1-methyl-N-(4-methyl-1,1-dioxidotetrahydro-2H-thiopyran-4-yl)-1H-imidazo[4,5-c]pyridine-2-carboxamide] |
| 3.3 nM | Cn1c(C(=O)NC2(C)CCS(=O)(=O)CC2)nc2ccc(OCC(OCC(F)F)C(F)(F)F)nc21 (single isomer, unassigned) [Example 64b, 5-[2-(2,2-difluoroethoxy)-3,3,3-trifluoro-propoxy]-3-methyl-N-(4-methyl-1,1-dioxo-thian-4-yl)imidazo[4,5-b]pyridine-2-carboxamide] |
| 58 nM | Cn1c(C(=O)NC2(C)CCS(=O)(=O)CC2)nc2cnc(Oc3ncc(Cl)cc3OCC(F)F)nc21 [Example 88, 2-[[5-Chloro-3-(2,2-difluoroethoxy)-2-pyridyl]oxy]-9-methyl-N-(4-methyl-1,1-dioxo-thian-4-yl)purine-8-carboxamide] |
| 1.2 nM | Cn1c(C(=O)NC2(C)CCS(=O)(=O)CC2)nc2ncc(Oc3ncc(Cl)cc3OCC(F)F)cc21 [Example 82, 6-[[5-Chloro-3-(2,2-difluoroethoxy)-2-pyridyl]oxy]-1-methyl-N-(4-methyl-1,1-dioxo-thian-4-yl)imidazo[4,5-b]pyridine-2-carboxamide] |
| 1.5 nM | Cn1c(C(=O)NC2(C)CCS(=O)(=O)CC2)nc2cc(F)c(Oc3ncc(Cl)cc3OCC(F)F)nc21 [Example 41, 5-((5-chloro-3-(2,2-difluoroethoxy)pyridin-2-yl)oxy)-6-fluoro-3-methyl-N-(4-methyl-1,1-dioxidotetrahydro-2H-thiopyran-4-yl)-3H-imidazo[4,5-b]pyridine-2-carboxamide] |
| 1.4 nM | Cn1c(C(=O)NC2(C)CCS(=O)(=O)CC2)nc2ccc(Oc3ncc(F)cc3OCC(F)F)nc21 [Example 30, 5-((3-(2,2-Difluoroethoxy)-5-fluoropyridin-2-yl)oxy)-3-methyl-N-(4-methyl-1,1-dioxidotetrahydro-2H-thiopyran-4-yl)-3H-imidazo[4,5-b]pyridine-2-carboxamide] |
| 570 nM | O=C(N[C@H]1CCCC(F)(F)[C@@H]1O)c1nc2ccc(Oc3ncc(Cl)cc3OCC(F)(F)F)cc2o1 [Example 1, 6-[[5-chloro-3-(2,2,2-trifluoroethoxy)-2-pyridyl]oxy]-N-[(1S,2R)-3,3-difluoro-2-hydroxy-cyclohexyl]-1,3-benzoxazole-2-carboxamide] |
| 44 nM | Cc1c(Oc2ncc(Cl)cc2OCC(F)(F)F)ccc2c1nc(C(=O)NC1(C)CCS(=O)(=O)CC1)n2C [Example 26, 5-((5-chloro-3-(2,2,2-trifluoroethoxy)pyridin-2-yl)oxy)-1,4-dimethyl-N-(4-methyl-1,1-dioxidotetrahydro-2H-thiopyran-4-yl)-1H-benzo[d]imidazole-2-carboxamide] |
| 681 nM | CC1(NC(=O)c2nc3ncc(Oc4ncccc4OCC(F)(F)F)cc3o2)CCS(=O)(=O)CC1 [Example 98, N-(4-methyl-1,1-dioxidotetrahydro-2H-thiopyran-4-yl)-6-((3-(2,2,2-trifluoroethoxy)pyridin-2-yl)oxy)oxazolo[4,5-b]pyridine-2-carboxamide] |
| 0.6 nM | Cc1c(Oc2ncc(Cl)cc2OCC(F)(F)F)ccc2nc(C(=O)NC3(C)CCS(=O)(=O)CC3)n(C)c12 [Example 25, 6-((5-chloro-3-(2,2,2-trifluoroethoxy)pyridin-2-yl)oxy)-1,7-dimethyl-N-(4-methyl-1,1-dioxidotetrahydro-2H-thiopyran-4-yl)-1H-benzo[d]imidazole-2-carboxamide] |
| 2 nM | CC1(NC(=O)c2nc3ccc(Oc4ncc(Cl)cc4OCC(F)F)nc3s2)CCS(=O)(=O)CC1 [Example 94, 5-((5-Chloro-3-(2,2-difluoroethoxy)pyridin-2-yl)oxy)-N-(4-methyl-1,1-dioxidotetrahydro-2H-thiopyran-4-yl)thiazolo[5,4-b]pyridine-2-carboxamide] |
| 3.9 nM | Cc1c(Oc2ncc(Cl)cc2OCC(F)F)ncc2nc(C(=O)NC3(C)CCS(=O)(=O)CC3)n(C)c12 [Example 78, 6-[[5-Chloro-3-(2,2-difluoroethoxy)-2-pyridyl]oxy]-1,7-dimethyl-N-(4-methyl-1,1-dioxo-thian-4-yl)imidazo[4,5-c]pyridine-2-carboxamide] |

| SMILES | IC50 |
| --- | --- |
| Cn1c(C(=O)NC2(C)CCS(=O)(=O)CC2)nc2ccc(OCC(CC(F)(F)F)OC(F)F)nc21 (single isomer, unassigned) [Example 62b, 5-[2-(difluoromethoxy)-4,4,4-trifluoro-butoxy]-3-methyl-N-(4-methyl-1,1-dioxo-thian-4-yl)imidazo[4,5-b]pyridine-2-carboxamide] | 163 nM |
| CCC(COc1ccc2nc(C(=O)NC3(C)CCS(=O)(=O)CC3)n(C)c2n1)OCC(F)F (centres unmarked) [Example 60, 5-[2-(2,2-Difluoroethoxy)butoxy]-3-methyl-N-(4-methyl-1,1-dioxo-thian-4-yl)imidazo[4,5-b]pyridine-2-carboxamide] | 3 nM |

same assay, conditions: read-out: Human DGAT2 IC50; hDGAT2 membrane prep from Sf-9 cells; 13C18-triolein product by LC/MS/MS

| IC50 | SMILES |
| --- | --- |
| 51 nM | CC1(NC(=O)c2nc3nc(Oc4ncc(Cl)cc4OCC(F)F)ccc3n2CC2(F)COC2)CCS(=O)(=O)CC1 [Example 56, 5-((5-chloro-3-(2,2-difluoroethoxy)pyridin-2-yl)oxy)-1-((3-fluorooxetan-3-yl)methyl)-N-(4-methyl-1,1-dioxidotetrahydro-2H-thiopyran-4-yl)-1H-imidazo[4,5-b]pyridine-2-carboxamide] |
| 58 nM | Cc1c(Oc2ncc(F)cc2OCC(F)(F)F)ncc2nc(C(=O)NC3(C)CCS(=O)(=O)CC3)n(C)c12 [Example 79, 6-[[5-fluoro-3-(2,2,2-trifluoroethoxy)-2-pyridyl]oxy]-1,7-dimethyl-N-(4-methyl-1,1-dioxo-thian-4-yl)imidazo[4,5-c]pyridine-2-carboxamide] |
| 12 nM | CC1(NC(=O)c2nc3ccc(Oc4ncccc4OCC(F)(F)F)cc3s2)CS(=O)(=O)C1 [Example 92, N-(3-methyl-1,1-dioxo-thietan-3-yl)-6-[[3-(2,2,2-trifluoroethoxy)-2-pyridyl]oxy]-1,3-benzothiazole-2-carboxamide] |
| 262 nM | Cn1c(C(=O)NC2(C)CCS(=O)(=O)CC2)nc2cnc(OCc3ncc(F)cc3OCC(F)(F)F)cc21 [Example 81, 6-[[5-Fluoro-3-(2,2,2-trifluoroethoxy)-2-pyridyl]methoxy]-1-methyl-N-(4-methyl-1,1-dioxo-thian-4-yl)imidazo[4,5-c]pyridine-2-carboxamide] |
| 900 nM | CO[C@]1(C(F)(F)F)C[C@H](NC(=O)c2nc3ccc(Oc4ncc(Cl)cc4OCC(F)(F)F)cc3o2)C1 [Example 6, 6-[[5-chloro-3-(2,2,2-trifluoroethoxy)-2-pyridyl]oxy]-N-[3-methoxy-3-(trifluoromethyl)cyclobutyl]-1,3-benzoxazole-2-carboxamide] |
| 20 nM | Cn1c(C(=O)NC2(C)CCS(=O)(=O)CC2)nc2ccc(Oc3nccnc3OCC(F)F)nc21 [Example 38, 5-[3-(2,2-difluoroethoxy)pyrazin-2-yl]oxy-3-methyl-N-(4-methyl-1,1-dioxo-thian-4-yl)imidazo[4,5-b]pyridine-2-carboxamide] |
| 8.9 nM | CCn1c(C(=O)NC2(C)CCS(=O)(=O)CC2)nc2ccc(Oc3ncc(Cl)cc3OCC(F)F)nc21 [Example 55, 5-((5-chloro-3-(2,2-difluoroethoxy)pyridin-2-yl)oxy)-3-ethyl-N-(4-methyl-1,1-dioxidotetrahydro-2H-thiopyran-4-yl)-3H-imidazo[4,5-b]pyridine-2-carboxamide] |
| 175 nM | Cc1c(Oc2ncc(F)cc2OCC(F)(F)F)cnc2nc(C(=O)NC3(C)CCS(=O)(=O)CC3)n(C)c12 [Example 85, 6-[[5-fluoro-3-(2,2,2-trifluoroethoxy)-2-pyridyl]oxy]-1,7-dimethyl-N-(4-methyl-1,1-dioxo-thian-4-yl)imidazo[4,5-b]pyridine-2-carboxamide] |
| 236 nM | Cn1c(C(=O)NC2(C)CCS(=O)(=O)CC2)nc2ccc(Oc3ncc(F)cc3OCC(C)(F)F)nc21 [Example 32, 5-[[3-(2,2-difluoropropoxy)-5-fluoro-2-pyridyl]oxy]-3-methyl-N-(4-methyl-1,1-dioxo-thian-4-yl)imidazo[4,5-b]pyridine-2-carboxamide] |
| 0.6 nM | CC1(NC(=O)c2nc3ccc(Oc4ncc(Cl)cc4OCC(F)F)nc3n2CC(F)F)CCS(=O)(=O)CC1 [Example 54, 5-((5-chloro-3-(2,2-difluoroethoxy)pyridin-2-yl)oxy)-3-(2,2-difluoroethyl)-N-(4-methyl-1,1-dioxidotetrahydro-2H-thiopyran-4-yl)-3H-imidazo[4,5-b]pyridine-2-carboxamide] |
| 9.1 nM | Cc1cnc(Oc2cc3c(cn2)nc(C(=O)NC2(C)CCS(=O)(=O)CC2)n3C)c(OCC(F)F)c1 [Example 73, 6-[[3-(2,2-difluoroethoxy)-5-methyl-2-pyridyl]oxy]-1-methyl-N-(4-methyl-1,1-dioxo-thian-4-yl)imidazo[4,5-c]pyridine-2-carboxamide] |
| 10 nM | CC1(NC(=O)c2nc3ccc(Oc4ncc(Cl)cc4OCC(F)F)nc3s2)CS(=O)(=O)C1 [Example 95] |
| 25 nM | Cn1c(C(=O)NC2(C)CCS(=O)(=O)CC2)nc2cnc(Oc3ncc(F)cc3OCC(F)(F)F)nc21 [Example 89, 2-[[5-fluoro-3-(2,2,2-trifluoroethoxy)-2-pyridyl]oxy]-9-methyl-N-(4-methyl-1,1-dioxo-thian-4-yl)purine-8-carboxamide] |
